Source: publication PMC11787452, “Substrate and inhibitor specificity of Plasmodium nucleoside transporters ENT1 orthologs” (The Journal of Biological Chemistry, 2024)
pKd: −log10 of the molar value. Several values for one entry are separate records, joined by “and”; a condition that tells them apart may be missing. Equal entries are not always repeated. Where two headings read alike, the source gives them in different places.

Experiments:
PbENT1 = target: T1, PbENT1 (Plasmodium berghei, UniProt A0A509AYF4); experiment: ITC binding to PbENT1; details: for pKd: 25 °C, 25 mM MES pH 6.0, 150 mM NaCl, 0.05% DDM
T1 construct: 10xHis (N); made in house; host or cells: Sf9 insect cells (baculovirus)
T1 sequence (A0A509AYF4 1-412): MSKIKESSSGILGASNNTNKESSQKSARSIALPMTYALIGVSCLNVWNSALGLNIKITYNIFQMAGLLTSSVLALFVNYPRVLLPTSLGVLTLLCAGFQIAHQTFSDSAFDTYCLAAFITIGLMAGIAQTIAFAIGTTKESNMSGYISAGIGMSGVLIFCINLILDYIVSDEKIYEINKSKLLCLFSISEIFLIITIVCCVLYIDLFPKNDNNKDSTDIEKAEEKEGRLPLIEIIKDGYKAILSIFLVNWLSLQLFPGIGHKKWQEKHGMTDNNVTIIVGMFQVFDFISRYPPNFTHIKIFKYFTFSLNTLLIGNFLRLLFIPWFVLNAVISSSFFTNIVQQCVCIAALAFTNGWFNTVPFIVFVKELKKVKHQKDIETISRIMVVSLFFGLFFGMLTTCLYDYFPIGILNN
Experimental: (§1) All the constructs were subcloned and inserted into a modified pFastBac with an N-terminal 10 × His tag. The baculovirus was generated in DH10Bac for recombinant protein expression. After 72 h of infection, Sf9 insect cells were harvested. For structural determination of the PfENT1 protein, Sf9 cells were solubilized in buffer containing 25 mM MES (pH 6.0), 150 mM NaCl, 2% (w/v) n-dodecyl-β-D-maltopyranoside (DDM), and protease inhibitor cocktail (0.8 μM aprotinin, 2 μM pepstatin, and 5 μg/ml leupeptin) at 4 °C for 2 h. After centrifugation at 18,000 rpm for 45 min at 4 °C, the detergent-soluble supernatant was collected via centrifugation at 4 °C for 60 min and incubated with Ni-NTA resin (QIAGEN) at 4 °C for 20 min. The resin was further washed with 25 mM MES pH 6.0, 150 mM NaCl, 10 mM imidazole, and 0.05% (w/v) DDM and eluted with buffer containing 25 mM MES pH 6.0, 150 mM NaCl, 300 mM imidazole, and 0.05% (w/v) DDM. The protein was further purified via size-exclusion chromatography (Superdex 200 Increase 10/300; GE Healthcare) in buffer containing 25 mM MES (pH 6.0), 150 mM NaCl, and 0.05% (w/v) DDM. The peak fractions were pooled and concentrated to 10∼50 μM for the nucleoside-binding assay. The protein purification of the bacterial nucleoside transporter NupG was performed as described in previous studies ([35]).
(§2) […] binding to ENTs was measured at 25 °C via a MicroCal PEAQ-ITC. The purified ENT protein was concentrated to 25 to 50 μM for ITC experiments. The nucleoside was diluted to 5 mM via the same buffer employed for protein purification, which consisted of 25 mM MES (pH 6.0), 150 mM NaCl, and 0.05% DDM. The inhibitor was diluted to 250 μM via the same buffer employed for protein purification, which consisted of 25 mM MES (pH 6.0), 150 mM NaCl, and 0.05% DDM. All the titrations were repeated three times.

PvENT1 = target: T2, PvENT1 (Plasmodium vivax, UniProt A5K8B0); experiment: ITC binding to PvENT1; details: for pKd: 25 °C, 25 mM MES pH 6.0, 150 mM NaCl, 0.05% DDM
T2 construct: 10xHis (N); made in house; host or cells: Sf9 insect cells (baculovirus)
T2 sequence (A5K8B0 1-416): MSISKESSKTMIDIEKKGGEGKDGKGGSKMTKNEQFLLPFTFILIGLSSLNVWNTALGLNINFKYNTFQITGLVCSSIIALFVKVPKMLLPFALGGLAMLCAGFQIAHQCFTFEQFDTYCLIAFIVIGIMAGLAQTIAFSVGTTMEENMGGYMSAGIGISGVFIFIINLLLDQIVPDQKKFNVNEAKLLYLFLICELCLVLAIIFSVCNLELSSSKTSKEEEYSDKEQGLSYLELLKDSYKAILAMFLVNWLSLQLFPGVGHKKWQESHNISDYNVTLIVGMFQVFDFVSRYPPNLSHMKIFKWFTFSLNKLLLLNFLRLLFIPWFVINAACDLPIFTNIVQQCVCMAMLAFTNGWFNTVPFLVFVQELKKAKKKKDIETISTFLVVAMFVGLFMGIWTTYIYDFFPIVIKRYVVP
Experimental: as §1, §2

[1] = target: T3, bacterial nucleoside transporter NupG (Escherichia coli, UniProt P0AFF4); experiment: ITC binding to NupG
T3 construct: made in house
T3 sequence (P0AFF4 1-418): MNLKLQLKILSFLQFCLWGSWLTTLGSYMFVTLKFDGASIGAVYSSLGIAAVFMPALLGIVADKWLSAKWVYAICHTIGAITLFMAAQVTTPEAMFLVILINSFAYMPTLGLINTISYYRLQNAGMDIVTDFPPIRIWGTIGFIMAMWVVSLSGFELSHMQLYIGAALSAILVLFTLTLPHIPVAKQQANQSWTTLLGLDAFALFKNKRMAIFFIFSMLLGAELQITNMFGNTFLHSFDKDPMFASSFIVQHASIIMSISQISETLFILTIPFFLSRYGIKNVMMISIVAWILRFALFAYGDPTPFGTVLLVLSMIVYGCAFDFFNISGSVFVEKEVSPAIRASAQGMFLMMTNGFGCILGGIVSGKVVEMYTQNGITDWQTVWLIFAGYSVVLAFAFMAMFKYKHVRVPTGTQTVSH
Experimental: as §1, with “The protein purification of the bacterial nucleoside transporter NupG was performed as described in previous studies ([35]).” left out
(§3) […] binding to ENTs was measured at 25 °C via a MicroCal PEAQ-ITC. […]

PfENT1M389L = target: T4, PfENT1M389L (Plasmodium falciparum, UniProt Q8IDM6, M389L); experiment: ITC binding to PfENT1M389L; details: for pKd: Kd (binding to PfENT1M389L), 25 °C, pH 6.0
T4 construct: 10xHis (N); made in house; host or cells: Sf9 insect cells (baculovirus)
T4 sequence (Q8IDM6 whole entry M389L): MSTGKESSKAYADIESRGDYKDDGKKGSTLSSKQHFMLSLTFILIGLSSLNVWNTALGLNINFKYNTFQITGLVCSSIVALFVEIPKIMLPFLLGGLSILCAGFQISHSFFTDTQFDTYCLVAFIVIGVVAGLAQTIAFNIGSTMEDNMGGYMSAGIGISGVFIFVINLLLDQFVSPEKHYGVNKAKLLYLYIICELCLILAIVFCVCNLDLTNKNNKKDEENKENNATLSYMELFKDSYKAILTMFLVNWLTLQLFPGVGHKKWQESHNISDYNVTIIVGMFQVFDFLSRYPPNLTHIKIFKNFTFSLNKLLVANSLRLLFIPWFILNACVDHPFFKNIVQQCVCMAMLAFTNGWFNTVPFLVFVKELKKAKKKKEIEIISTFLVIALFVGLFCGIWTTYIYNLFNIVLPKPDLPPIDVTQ
Experimental: as §1, §2

HepG2 cells = experiment: Cytotoxicity assay (Cell Counting Kit-8) on HepG2 cells; format: cell-based; details: 1.5 to 400 μM, 48 h, compared with GSK4, GSK4-1, GSK4-2
Experimental: (§4) HepG2 and 293T cells were obtained from ATCC and cultured in Dulbecco’s modified Eagle’s medium supplemented with 10% fetal bovine serum and 1% penicillin-streptomycin (Gibco). Cells were maintained at 37 °C in a humidified atmosphere containing 5% CO2. Cells were seeded at a density of 5 × 10^3 cells per well in 96-well plates and allowed to adhere for 24 h before treatment. Cells were treated with the test compounds at concentrations ranging from 1.5 to 400 μM for 48 h. Control wells were treated with an equivalent concentration of DMSO (vehicle control). Cell viability was assessed using the Cell Counting Kit-8. After 48 h of treatment, 10 μl of Cell Counting Kit-8 solution was added to each well, and the plates were incubated for 2 h at 37 °C. The absorbance was measured at 450 nm using a microplate reader. Cell viability was expressed as a percentage of the control group, and IC50 values were calculated using nonlinear regression analysis (GraphPad Prism 8.0). Data are presented as mean ± SD from three independent experiments, each performed in triplicate.

PfENT1 [2] = target: T5, PfENT1 (Plasmodium falciparum, UniProt Q8IDM6); experiment: ITC binding to PfENT1; details: for pKd: 25 °C, 25 mM MES pH 6.0, 150 mM NaCl, 0.05% DDM
T5 construct: 10xHis (N); made in house; host or cells: Sf9 insect cells (baculovirus)
T5 sequence (Q8IDM6 whole entry): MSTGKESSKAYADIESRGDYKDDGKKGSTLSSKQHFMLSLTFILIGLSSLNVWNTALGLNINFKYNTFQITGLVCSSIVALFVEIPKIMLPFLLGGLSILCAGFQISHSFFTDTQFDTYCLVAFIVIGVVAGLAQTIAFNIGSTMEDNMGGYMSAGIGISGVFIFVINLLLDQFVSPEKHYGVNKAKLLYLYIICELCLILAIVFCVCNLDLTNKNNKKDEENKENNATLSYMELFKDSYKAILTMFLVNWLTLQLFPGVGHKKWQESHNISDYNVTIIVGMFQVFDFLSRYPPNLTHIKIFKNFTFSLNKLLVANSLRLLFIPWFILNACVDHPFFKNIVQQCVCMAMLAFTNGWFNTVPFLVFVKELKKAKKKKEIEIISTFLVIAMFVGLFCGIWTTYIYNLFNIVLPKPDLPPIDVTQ
Experimental: as §1, §2

293T cells = experiment: Cytotoxicity assay (Cell Counting Kit-8) on 293T cells; format: cell-based; details: 1.5 to 400 μM, 48 h, compared with GSK4, GSK4-1, GSK4-2
Experimental: as §4

PbENT1L388M = target: T6, PbENT1L388M (Plasmodium berghei, UniProt A0A509AYF4, L388M); experiment: ITC binding to PbENT1L388M
T6 construct: 10xHis (N); made in house; host or cells: Sf9 insect cells (baculovirus)
T6 sequence (A0A509AYF4 whole entry L388M): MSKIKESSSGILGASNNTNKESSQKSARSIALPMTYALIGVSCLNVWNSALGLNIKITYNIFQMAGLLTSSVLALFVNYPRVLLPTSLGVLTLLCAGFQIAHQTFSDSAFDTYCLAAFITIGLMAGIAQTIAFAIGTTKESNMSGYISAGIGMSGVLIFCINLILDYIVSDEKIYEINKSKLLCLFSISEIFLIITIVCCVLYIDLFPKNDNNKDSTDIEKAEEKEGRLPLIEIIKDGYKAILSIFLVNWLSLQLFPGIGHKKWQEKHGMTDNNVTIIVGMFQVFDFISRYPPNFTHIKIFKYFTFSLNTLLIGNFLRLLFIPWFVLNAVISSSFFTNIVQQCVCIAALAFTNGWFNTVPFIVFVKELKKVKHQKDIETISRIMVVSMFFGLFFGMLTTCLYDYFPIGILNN
Experimental: as §1, with “The protein purification of the bacterial nucleoside transporter NupG was performed as described in previous studies ([35]).” left out
as §3

PfENT1 [3] = target: T5, PfENT1; design: method as in PMID 36977719; details: competition assay; cited from earlier work
[4] = read-out: Kd (binding affinity for PvENT1)

Compound: O=c1[nH]c(=O)c2ncn([C@@H]3O[C@H](CO)[C@@H](O)[C@H]3O)c2[nH]1 [xanthosine]
- pKd (PbENT1; Kd (binding affinity for PbENT1)): 4.05 and 4.03 and 4.02
- pKd (PvENT1; Kd (binding affinity for PvENT1)): 3.94 and 3.91 and 3.97

Compound: O=C(NCCN1CCCCCC1=O)c1nc(-c2ccccc2)oc1C1CC1 [GSK4-3]
- binding affinity for PbENT1 (in words) (PbENT1): negligible binding
- binding to NupG (in words) [1]: cannot bind
- increase in binding affinity for PfENT1M389L compared with parent compound GSK4 (PfENT1M389L): 6 fold
- pKd (PfENT1M389L): 7.35
- cytotoxicity (in words) (HepG2 cells): lower cytotoxicity
- pKd (PfENT1 [2]; read-out: Kd (binding affinity for PfENT1)): 7.66 and 7.87 and 7.79
- cytotoxicity (in words) (293T cells): lower cytotoxicity
- binding affinity for PvENT1 (in words) (PvENT1): comparable binding
- pKd (PvENT1; [4]): 7.24 and 7.42 and 7.51

Compound: Cc1oc(-c2ccccc2)nc1C(=O)NCCN1CCCCCC1=O [GSK4]
- pKd (PbENT1; read-out: Kd (binding affinity for PbENT1)): 4.81 and 5.31 and 4.90
- binding affinity of PbENT1L388M relative to PbENT1WT (PbENT1L388M): five times greater
- pKd (PbENT1L388M; Kd (binding to PbENT1L388M), 25 °C, pH 6.0): 5.59 and 5.68 and 5.56
- binding affinity of PfENT1M389L relative to PfENT1WT (PfENT1M389L): five times weaker
- pKd (PfENT1M389L): 6.63 and 6.50 and 6.56
- pKd (PfENT1 [2]; Kd (binding affinity for PfENT1)): 7.42 and 7.28 and 7.32
- pKd (PvENT1; [4]): 7.27 and 7.43 and ~7.33 and 7.33

Compound: Cc1cn([C@H]2C[C@H](O)[C@@H](CO)O2)c(=O)[nH]c1=O [thymidine]
- binding affinity for PbENT1 (in words) (PbENT1): weak
- inhibition of the inosine transport activity of PfENT1 (PfENT1 [3]): effectively inhibited
- binding affinity for PfENT1 (in words) (PfENT1 [2]; PfENT1 WT): undetectable

Compound: Cc1oc(-c2ccc(Cl)cc2)nc1C(=O)NCCN1CCCCCC1=O [GSK4-1]
- decrease in binding affinity for PfENT1 (versus GSK4) (PfENT1 [2]): 3.5 fold

Compound: Nc1ccn([C@@H]2O[C@H](CO)[C@@H](O)[C@H]2O)c(=O)n1 [cytidine]
- binding affinity for PbENT1 (in words) (PbENT1): No binding affinity was detected
